Results taken from article PMC6887723, “Design and Synthesis of 4-(Heterocyclic Substituted Amino)-1H-Pyrazole-3-Carboxamide Derivatives and Their Potent Activity against Acute Myeloid Leukemia (AML)” (International Journal of Molecular Sciences, 2019).

Legend:
CDK4 = target: T1, CDK4 (Homo sapiens, UniProt P11802); test: CDK4 kinase activity assay (Hot-Spot); assay type: biochemical; conditions: 10 μM ATP; mean ± SD, three independent experiments
T1 construct: purchased Reaction Biology Corp
Procedure: (§1) Activities of kinases were determined using Hot-SpotSM kinase assay which was performed by Reaction Biology Corp. (Malvern PA, USA) as described previously.

MV4-11 cells = test: Cell apoptosis assay (Annexin V-FITC/PI, flow cytometry); assay type: cell-based, human; conditions: MV4-11, 2 μM, 24 h
Procedure: The apoptosis of MV4-11 cells was determined by Annexin V-FITC/PI assay. Annexin V binds to phosphatidylserine, which is exposed on the cell membrane and is one of the earliest indicators of cellular apoptosis. PI (Propidium Iodide) is used as a DNA stain for both flow cytometry to evaluate cell viability or DNA content in cell cycle analysis and microscopy to visualize the nucleus and other DNA containing organelles. It can be used to differentiate necrotic, apoptotic, and normal cells. Cells (2 × 10^5) were seeded in 6-well plate and were treated with varying concentrations of inhibitor for 24 h. MV4-11 cells were collected and incubated with FITC-conjugated Annexin V (Nanjing keyGen Biotech Company, Nanjing, China). The nuclei were then counterstained with PI. After the dual staining, the cells were screened by a FAC Scan flow cytometer (FACS Calibun, Becton Dickinson, Nanjing, China). The upper left corner of the quadrant represents debris, lower left are live cells, upper right are advanced apoptotic or necrotic cells and lower right are apoptotic cells.

FLT3 = target: T2, FLT3 (Homo sapiens, UniProt P36888); test: FLT3 kinase activity assay (Hot-Spot); assay type: biochemical; conditions: 10 μM ATP; mean ± SD, three independent experiments
T2 construct: purchased Reaction Biology Corp
T2 sequence (P36888 27-993): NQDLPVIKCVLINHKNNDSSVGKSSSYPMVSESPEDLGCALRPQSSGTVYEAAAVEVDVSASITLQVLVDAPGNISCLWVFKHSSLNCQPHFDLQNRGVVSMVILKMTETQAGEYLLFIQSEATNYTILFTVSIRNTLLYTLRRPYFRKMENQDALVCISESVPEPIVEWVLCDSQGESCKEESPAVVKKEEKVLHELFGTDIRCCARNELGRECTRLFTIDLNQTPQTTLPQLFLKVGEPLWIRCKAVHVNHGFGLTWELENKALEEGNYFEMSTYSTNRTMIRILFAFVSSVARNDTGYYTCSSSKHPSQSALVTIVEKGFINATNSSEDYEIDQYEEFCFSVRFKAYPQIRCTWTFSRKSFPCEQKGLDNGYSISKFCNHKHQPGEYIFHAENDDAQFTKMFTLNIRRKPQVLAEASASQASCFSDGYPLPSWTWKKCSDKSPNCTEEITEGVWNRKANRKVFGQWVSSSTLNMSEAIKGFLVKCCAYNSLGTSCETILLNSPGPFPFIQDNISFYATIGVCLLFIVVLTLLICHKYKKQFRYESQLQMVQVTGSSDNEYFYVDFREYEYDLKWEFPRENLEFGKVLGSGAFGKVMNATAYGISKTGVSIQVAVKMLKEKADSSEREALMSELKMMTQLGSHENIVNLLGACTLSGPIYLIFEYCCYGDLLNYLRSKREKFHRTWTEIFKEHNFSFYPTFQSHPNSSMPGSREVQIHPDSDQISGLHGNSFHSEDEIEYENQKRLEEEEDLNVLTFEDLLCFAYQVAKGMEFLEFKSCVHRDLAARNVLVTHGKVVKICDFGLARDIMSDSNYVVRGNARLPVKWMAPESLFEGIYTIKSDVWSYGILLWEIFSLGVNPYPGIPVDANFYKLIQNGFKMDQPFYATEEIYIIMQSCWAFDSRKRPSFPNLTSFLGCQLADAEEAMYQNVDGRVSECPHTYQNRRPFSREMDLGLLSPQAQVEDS
Procedure: as §1

[1] = system: human cell lines of NCI60; test: NCI60 screening, overall; assay type: cell-based; conditions: for most cell lines
Description: With these findings, we submitted compound 8t to National Cancer Institute (NCI) to evaluate their antitumor efficacy against 60 human cancer cell lines.

MV4-11 = test: Cell growth inhibition assay (CellTiter-Glo); assay type: cell-based; conditions: Homo sapiens, 72 h, highest test concentration 1 μM, mean ± SD, three independent experiments
Procedure: The human AML cell line MV4-11 was purchased from the American Type Culture Collection (ATCC) (Manassas, VA, USA). MV4-11 was cultured in IMDM media (Corning, Crown Bioscience Inc., Taicang, China) with 10% FBS and supplemented with 2% L-glutamine and 1% pen/strep. The MV4-11 cell line was maintained in culture media at 37 °C with 5% CO2. The effects of target compounds on MV4-11 proliferation was performed by Crown Bioscience Inc. Cells were grown in 96-well culture plates (10,000/well). The compounds of various concentrations were added into the plates. Cell proliferation was determined after treatment with compounds for 72 h. Cell viability was measured using the CellTiter-Glo assay (Promega, Crown Bioscience Inc., Taicang, China) according to the manufacturer’s instructions, and luminescence was measured in a multilabel reader (Envision2014, PerkinElmer, Crown Bioscience Inc., Taicang, China). Data were normalized to the control group (DMSO) and represented by the mean of three independent measurements with standard error of <20%. IC50 values were calculated using Prism 5.0 (GraphPad Software, San Diego, CA, USA).

[2] = system: phosphorylation of the retinoblastoma protein (Rb); test: Western blot, phosphorylation of Rb in MV4-11 cells; assay type: cell-based, human; conditions: MV4-11, 4 h; dose-dependent; at 1 μM comparable with AT-7519
Procedure: (§2) Analysis of pFLT3, pSTAT5, pERK, pAKT, and pRb in vitro: to determine the levels of pFLT3, pSTAT5, pERK, pAKT, and pRb, cells were seeded in a 6-well cell culture plate at a density of 400,000 cells per well for MV4-11 in a total volume of 1800 μL and incubated overnight in medium containing 10% fetal bovine serum (Life Technologies, Rockville, MD, USA). Then 200 μL of serially diluted compounds were added to each well the next day. Cell lysates were harvested after 4 h and pFLT3, pSTAT5, pERK, pAKT, or pRb were quantified using assay kits for FLT3/Phospho-FLT3Tyr589/591, pSTAT5 (Tyr694)/total STAT5, pRb (Ser807)/total Rb (Nanjin keyGen Biotech Company, Nanjing, China) following the manufacturer’s protocols.

BaF3 (FLT3 (ITD-F691L)) = test: Antiproliferative activity in BaF3 cells transformed with FLT3-ITD-F691L; assay type: cell-based; conditions: Mus musculus, Table S2
CDK2 = target: T3, CDK2 (Homo sapiens, UniProt P24941); test: CDK2 kinase activity assay (Hot-Spot); assay type: biochemical; conditions: 10 μM ATP; mean ± SD, three independent experiments
T3 construct: purchased Reaction Biology Corp
Procedure: as §1

FLT3 mutants = test: Hot-Spot kinase profiling, FLT3 mutants together; assay type: biochemical; conditions: eight FLT3 mutants, bound for all; read-out: IC50 against FLT3 mutants
Procedure: as §1

[3] = system: phosphorylation of the FLT3; test: Western blot, phosphorylation of FLT3 in MV4-11 cells; assay type: cell-based, human; conditions: MV4-11, 4 h, 1 μM; dose-dependent, more potent than sorafenib
Procedure: as §2

T1 sequence (P11802 whole entry): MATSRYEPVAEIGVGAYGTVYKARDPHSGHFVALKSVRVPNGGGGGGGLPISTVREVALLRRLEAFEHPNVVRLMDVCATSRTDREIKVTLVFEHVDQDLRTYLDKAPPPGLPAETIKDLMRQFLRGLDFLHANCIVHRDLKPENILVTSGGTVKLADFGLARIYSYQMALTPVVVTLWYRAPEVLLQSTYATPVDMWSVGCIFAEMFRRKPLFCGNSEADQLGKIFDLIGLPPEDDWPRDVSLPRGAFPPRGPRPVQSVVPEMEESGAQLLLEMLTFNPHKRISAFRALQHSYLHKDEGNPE
T1 sequence (P24385 whole entry partner): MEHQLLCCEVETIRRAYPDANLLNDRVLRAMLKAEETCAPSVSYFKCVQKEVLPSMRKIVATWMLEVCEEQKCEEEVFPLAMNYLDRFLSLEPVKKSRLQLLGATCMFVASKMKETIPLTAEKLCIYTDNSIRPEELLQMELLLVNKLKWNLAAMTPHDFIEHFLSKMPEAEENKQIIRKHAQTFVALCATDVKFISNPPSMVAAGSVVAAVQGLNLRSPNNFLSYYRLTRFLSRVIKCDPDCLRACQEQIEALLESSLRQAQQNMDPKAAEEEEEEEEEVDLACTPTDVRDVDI

IC50 (CDK4): 0.77 ± 0.007 nM | IC50 (FLT3): 0.089 ± 0.013 nM | IC50 (MV4-11): 1.22 ± 0.06 nM | IC50 (BaF3 (FLT3 (ITD-F691L))): 21.9 nM | IC50 (CDK2): 0.719 ± 0.064 nM | melting point: 266 to 268 °C | IC50 (FLT3 mutants): < 5 nM
SMILES: O=C(Nc1ccc(N2CCNCC2)cc1)c1n[nH]cc1Nc1ncnc2sc3c(c12)CCC3 [Compound 8t]
apoptosis rate (MV4-11 cells): 51.36% | GI50 [1]: < 1000 nM | phosphorylation of the retinoblastoma protein (Rb) [2]: inhibited | phosphorylation of the FLT3 [3]: eliminated
